Results from patent publication US20080279961A1, “TELOMERE TARGETING AGENTS AS STEM CELLS DIRECTED TREATMENTS” (priority 2007, published 2008).
Entries after “also recorded” stand apart in the source; their conditions may differ.

Legend:
hTERT = hTERT immunofluorescence staining in vitro; type: cell-based, human; details: UXF1138L cells, 1 microM, 24 hrs
Protocol: (§1) During phosphorylated H2AX (gamma-H2AX) and hTERT immunofluorescence staining, approximately 75,000 UXF1138L cells/chamber were seeded onto 8 chamber glass slides (Costar) 24 hrs prior to RHPS4 treatment. After exposure to 1 μM RHPS4 for 1, 6, or 24 hours, cells were washed twice with PBS and air dried. Cells were fixed and permeabilized by immersion into ice-cold methanol/acetone (1:1; 3×1 min). Slides were blocked overnight at 4° C. with 5% BSA in PBS and washed with PBS (3×) before incubation (2 hrs) with anti-gamma-H2AX mouse monoclonal antibody (Upstate, Waltham, Mass.; 1:250 in PBS) or hTERT monoclonal antibody (NCL-L-hTERT Novacastra, Newcastle, UK; 1:40) respectively. Control cells were probed with mouse IgG (Santa Cruz Biotechnolog Inc., Santa Cruz, Calif.). Slides were washed 3× with PBS, before incubation with a goat anti-mouse FITC conjugated secondary antibody (Sigma; 1:100, 3 h). Following further PBS washes (3×), slides were incubated with 1:5000 DAPI (2 mg/ml; Sigma), washed 3× in PBS and mounted with Vectashield mounting media. Images were visualized as described above.

HEK293T cells = test: MTT proliferation assay (monolayer); type: cell-based, human
Protocol: To assess RHPS4 effects on normal stem cells, the human embryonic kidney cell line HEK293T was exposed to drug in the MTT and HTCA assays, and tested RHPS4 effects on colony forming units of the mononuclear cell fraction of human cord blood in methyl cellulose (FIG. 2C). The cord blood colony assay was performed with and without colony stimulating growth factors, only methylcellulose containing growth factors grew colonies. […] Additionally, in normal cell types as compared to tumor cells, low and pharmacodynamically relevant concentrations of RHPS4 (0.01 to 1 microM) did induce colony formation (FIG. 2C). To assure that the induction of colony growth by RHPS4 in normal stem cells is reproducible, cord blood from three different individuals and HEK293T cells from different passages were used. Data shown in FIG. 2C represent the mean and standard deviation from three independent experiments. […] However, the plating efficiency (actual number of colonies growing per total number of cells seeded) varied among the experiments and therefore the results are shown as % of control growth. E.g. HEK293T control colony growth ranged from a mean number of 54 to 463 colonies per well, but the least percentage (cut-off level) of growth induction by RHPS4 observed in either, the individual HEK293T or the cord blood experiments, was 150%. […]

water solubility = type: physicochemical
Description: RHPS4 was synthesized as described (Heald et al 2002). RHPS4 is water-soluble and was therefore dissolved in phosphate buffered saline (PBS). For in vitro studies paclitaxel (Taxol) was purchased from Sigma (St. Louis, Mo.) and dissolved in dimethylsulfoxide (DMSO); for in vivo experiments the clinical formulation was used and obtained Cremophor from Bristol-Myers Squibb, New York, N.Y.

gamma-H2AX = gamma-H2AX immunoblotting and immunofluorescence; type: cell-based, human; details: UXF1138L cells, 1 μM, Western blot
Protocol: as §1
During immunoblotting for gamma-H2AX, cells were grown to 50 to 80% confluent in 6-well plates (Falcon) and treated with 1 μM RHPS4 for 1, 6, and 24 hours. […] Histones were dissolved in water and protein concentration was determined using the BioRad protein assay (BioRad Laboratories, Hercules Calif.). […]

SMILES: COS(=O)(=O)[O-].Cc1cc2c3c([n+](C)c4ccc(F)cc4c3c1)-c1cc(F)ccc1N2C [RHPS4, 3,11-difluoro-6,8,13-trimethyl-8H-quino[4,3,2-kl]acridinium methosulfate]
- nuclear hTERT expression in vitro (hTERT): nuclear hTERT expression was attenuated; also recorded: nuclear hTERT signal is attenuated
- bulk cell growth, % of control (HEK293T cells; 1 mircoM RHPS4, HEK293T monolayer): 60%
- induction of growth in MTT assay (HEK293T cells; eight dose levels 0.001-50 mircoM): no induction of growth
- solubility in water (water solubility): water-soluble
- time at which gamma-H2AX expression was seen (gamma-H2AX): 1 h
